According to PMC4839669, “Heterologous Expression and Biochemical Characterization of Two Lipoxygenases in Oriental Melon, Cucumis melo var. makuwa Makino” (PLoS ONE, 2016):

Biological target: T1, CmLOX10 (Cucumis melo, UniProt A0A125S6K7)
T1 construct: gene LOX10; full-length 902 residues incl. predicted 37-residue transit peptide; N-terminal His tag (pET-30a), E. coli BL21(DE3), Ni-NTA
T1 sequence (A0A125S6K7 1-902): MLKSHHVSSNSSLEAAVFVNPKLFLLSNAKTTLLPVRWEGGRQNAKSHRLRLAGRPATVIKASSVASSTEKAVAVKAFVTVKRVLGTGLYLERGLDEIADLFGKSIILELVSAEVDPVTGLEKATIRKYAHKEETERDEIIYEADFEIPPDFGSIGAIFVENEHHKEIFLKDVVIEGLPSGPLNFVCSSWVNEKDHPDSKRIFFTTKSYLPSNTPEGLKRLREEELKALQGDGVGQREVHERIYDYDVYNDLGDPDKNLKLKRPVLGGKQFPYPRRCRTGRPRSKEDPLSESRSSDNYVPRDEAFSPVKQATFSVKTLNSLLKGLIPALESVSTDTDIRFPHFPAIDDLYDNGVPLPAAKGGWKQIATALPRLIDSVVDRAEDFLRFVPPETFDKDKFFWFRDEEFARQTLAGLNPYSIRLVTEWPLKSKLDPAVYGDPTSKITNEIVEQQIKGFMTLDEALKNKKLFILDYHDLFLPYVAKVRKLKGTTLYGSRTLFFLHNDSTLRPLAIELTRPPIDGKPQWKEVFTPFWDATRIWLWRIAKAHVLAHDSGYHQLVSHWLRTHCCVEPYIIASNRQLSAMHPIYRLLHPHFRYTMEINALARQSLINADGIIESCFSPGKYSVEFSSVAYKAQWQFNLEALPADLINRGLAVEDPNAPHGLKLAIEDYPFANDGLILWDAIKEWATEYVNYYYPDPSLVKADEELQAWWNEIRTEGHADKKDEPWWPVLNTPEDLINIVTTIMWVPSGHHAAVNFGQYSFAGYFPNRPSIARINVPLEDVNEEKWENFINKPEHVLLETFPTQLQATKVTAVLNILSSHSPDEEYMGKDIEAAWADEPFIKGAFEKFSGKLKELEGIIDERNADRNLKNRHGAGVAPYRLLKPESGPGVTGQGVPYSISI
Experiment: conjugated diene formation at […] nm, Michaelis-Menten
Format: biochemical
Settings: 25 °C, saturating oxygen, 16.5-330 μM substrate; pH of kinetics not stated explicitly (optimum pH 5.0)

Structure (SMILES) | Km [µM]
CCCCC/C=C\C/C=C\CCCCCCCC(=O)O [linoleic acid] | 230
CC/C=C\C/C=C\C/C=C\CCCCCCCC(=O)O [linolenic acid] | 140
